Key:
Type in all cases: cell-based, human
Wild type (Wt) cells = test: VTB-GL-3 assay, wild type cells; details: Wt cells treated for 3 days
NPC3 cells = test: Lactosyl Ceramide (BODIPY-LacCer) staining to monitor sphingolipid transport; details: for correction of lipid transport block (accumulation of Bodipy LacCer probe to the Golgi): compared to untreated NPC3 cells
Experimental: Lactosyl Ceramide staining to monitor sphingolipid transport in NPC cells. The effect of each compound on the sphingolipid transport defect seen in NPC1 fibroblasts was assessed in cells treated with compound for 48-72 hours using the fluorescent probe BODIPY-lactosylceramide (LacCer). […] This mislocalization can be corrected and Golgi localization restored by expression of Wt NPC1 protein or Rab9, thus providing a dynamic view of the endocytic transport pathway. Cells were incubated with 5 μM BODIPY-LacCer/BSA for 45 min at 37° C. in culture medium containing 1% FBS, washed, and further incubated for 1 h at 37° C. in medium containing 1% FBS. Fluorescent lipid present at the plasma membrane was removed by back-exchange with 5% fatty acid-free BSA. Cells were fixed with 3% paraformaldehyde for 20 min at RT and then visualized on a Nikon Eclipse microscope fitted with a charge-coupled-device camera. Images were acquired with MetaVue software and then deconvoluted using AutoDeblur software.
Unlike the VTB assay above that detects the static levels of lipid storage, the Bodipy LacCer probe allows for detection of the recovery/correction of lipid transport from the plasma membrane to the Golgi apparatus as described above. This dynamic assay can be used to determine the level of correction various compounds have on the NPC transport block.

Rab9 promoter = test: qHTS of Rab9 Promoter-Luciferase Reporter Gene Assay (firefly, Huh7); details: 24 hours
Experimental: qHTS of Rab9 Promoter-Luciferase Reporter Gene Assay. For the primary screen, a promoter assay was developed by engineering a vector using approximately 1.5 kb of the Rab9 promoter to drive the expression of the firefly luciferase reporter gene. Thus, Rab9 promoter activation results in luciferase expression. This vector was used to generate Huh7 cell lines stably expressing the Rab9-luciferase vector. […] Cells were plated for assays in OPTI-MEM I reduced-serum medium supplemented with 10% FBS at 1,500 cells/well in 5 μL in 1,536-well white opaque plates with 23 nL/well of test compound in DMSO solution. The assay plates were incubated at 37° C. for 24 hours, after which 3 μL/well BriteLite plus luciferase detection reagent mixture (Perkin Elmer) was added. Luminescence signal was measured in a ViewLux plate reader (Perkin Elmer) after a 10 minute incubation at room temperature.

NPC1 promoter [1] = test: qHTS of NPC1 Promoter-Luciferase Reporter Gene Assay (firefly, Huh7); details: 24 hours
Experimental: qHTS of NPC1 Promoter-Luciferase Reporter Gene Assay. For the second primary screen, a promoter assay was developed by engineering a vector using approximately 1.5 kb of the NPC1 promoter to drive the expression of the firefly luciferase reporter gene. Thus, NPC1 promoter activation results in luciferase expression. This vector was used to generate Huh7 cell lines stably expressing the NPC1-luciferase vector. […] Cells were plated for assays in OPTI-MEM I reduced-serum medium supplemented with 10% FBS at 1,500 cells/well in 5 μL in 1,536-well white opaque plates with 23 nL/well of test compound in DMSO solution. The assay plates were incubated at 37° C. for 24 hours, after which 3 μL/well BriteLite plus luciferase detection reagent mixture (Perkin Elmer) was added. Luminescence signal was measured in a ViewLux plate reader (Perkin Elmer) after a 10 minute incubation at room temperature.

[2] = test system: NPC1 patient cell fibroblasts; test: Filipin Staining Assay to Detect Free Cholesterol Accumulation in NPC Cells; details: filipin fluorescence relative to untreated cells; for activity at 1 µM: Homo sapiens, Fibroblast, read-out: % storage at 1 μM
Experimental: Filipin Staining Assay to Detect Free Cholesterol Accumulation in NPC Cells. Compounds were evaluated for their effect on the NPC1 cellular phenotype by staining treated NPC1 patient cell fibroblasts with filipin, which recognizes free unesterified cholesterol. Compounds that upregulate the NPC1 promoter were expected to reduce the filipin staining in treated NPC1 fibroblasts compared to untreated NPC1 fibroblasts, indicating clearance of unesterified cholesterol. Conversely, inhibitors of the NPC1 promoter were expected to increase filipin staining in wild-type fibroblasts, thus indicating the emergence of an NPC-like phenotype. Briefly, cells were grown in lipoprotein-deficient medium for 3-4 days, and then the medium was replaced and supplemented with test compound plus 50 μg/mL low-density lipoprotein (LDL). After 24-48 hours, cells were stained with filipin and scored under the 40× magnification filter using the integrated morphometry function in the Metavue program (Molecular Devices). Test compounds that decreased the intensity of filipin fluorescence to less than 50% of untreated cells are considered of particular interest.

NPC1 promoter [3] = test: Confirmation Assay of NPC1 Promoter Activators: Renilla Luciferase (Huh7); details: Homo sapiens, Huh-7, 24 hours; for Emax: read-out: NPC1-renilla Eff.
Experimental: Confirmation Assay of NPC1 Promoter Activators: Renilla Luciferase. The confirmation assay was carried out using an assay in which the NPC1 promoter drives the expression of a different luciferase protein from the one used in the primary screen. The NPC1 promoter was cloned in front of the renilla luciferase reporter gene. NPC1 promoter activation results in renilla luciferase expression. This vector was used to generate Huh7 cell lines stably expressing the NPC1-renilla luciferase vector. These cells were propagated and maintained in medium containing RPMI-1640 supplemented with 10% FBS, 2 mM L-glutamine, and 50 μg/mL penicillin/streptomycin. Cells were plated for assays in OPTI-MEM I reduced-serum medium supplemented with 10% FBS at 1,500 cells/well in 5 μL in 1,536-well white opaque plates and then 23 nL/well of compound in DMSO solution were added through pin transfer. The assay plates were incubated at 37° C. for 24 hours. The Amplite luciferase reporter gene assay kit was purchased from ABD Bioquest and prepared/stored according to manufacturer's recommendations. Luminescence signal was measured in a ViewLux plate reader (Perkin Elmer) after a 10 minute incubation at room temperature.

SMILES | EC50 (NPC1 promoter [1]) [µM] | NPC1 Eff. (NPC1 promoter [1]) | % storage at 0.1 μM [2] [%] | % storage at 1 μM [2] [%] | also measured
CC(=O)c1c(C)[nH]c(C(=O)Nc2cccc(S(=O)(=O)N(C)C)c2)c1C [Example 1] | 6.6 to 7.7 | 68-83% | 40 | 22 | effect on storage of lipid material (VTB staining) in Wt cells (Wild type (Wt) cells): no effect on Wt cells; percent Golgi location (NPC3 cells; 1 μM): reduces percent Golgi location by a statistically significant amount; correction of lipid transport block (accumulation of Bodipy LacCer probe to the Golgi) (NPC3 cells): correction of their block; EC50 (Rab9 promoter): 6.1 µM; Rab9 Eff. (Rab9 promoter): 148%
COc1ccc(NC(=O)c2[nH]c(C)c(C(C)=O)c2C)cc1S(=O)(=O)Nc1ccc(C#N)cc1 [Example 41] | 8.7 | 100% | – | 58 | –
COc1ccc(NC(=O)c2cccnc2C)cc1S(=O)(=O)Nc1ccc(Br)cc1 [Example 49] | – | – | – | – | EC50 (NPC1 promoter [3]): 5.5 µM; Emax (NPC1 promoter [3]): 395%; activity at 1 µM [2]: 30%
CCc1ccc(NC(=O)c2[nH]c(C)c(C(C)=O)c2C)cc1S(=O)(=O)Nc1ccc(C#N)cc1 [Example 38] | 3.4 | 259% | – | 62 | –
COc1ccc(NC(=O)c2ccccc2)cc1S(=O)(=O)Nc1ccc(Br)cc1 [Example 45] | – | – | – | – | EC50 (NPC1 promoter [3]): 1.1 µM; Emax (NPC1 promoter [3]): 223%; activity at 1 µM [2]: 60%
COc1ccc(NC(=O)c2c[nH]cn2)cc1S(=O)(=O)Nc1ccc(Br)cc1 [Example 56] | – | – | 50 | 48 | –
COc1ccc(NC(=O)c2c[nH]c(-c3ccccc3)n2)cc1S(=O)(=O)Nc1ccc(Br)cc1 [Example 57] | – | – | 70 | 41 | –
COc1ccc(NC(=O)c2c(C)cccc2C)cc1S(=O)(=O)Nc1ccc(Br)cc1 [Example 46] | – | – | 26 | – | EC50 (NPC1 promoter [3]): 1.1 µM; Emax (NPC1 promoter [3]): 192%; activity at 1 µM [2]: 46%
COc1ccc(NC(=O)c2[nH]c(C)c(C(C)=O)c2C)cc1S(=O)(=O)Nc1ccc(Br)cc1 [Example 36] | 0.7 | 150% | 50 | 25 | effect on storage of lipid material (VTB staining) in Wt cells (Wild type (Wt) cells): no effect on Wt cells; percent Golgi location (NPC3 cells; 10 or 100 nM): reduces percent Golgi location by a statistically significant amount; correction of lipid transport block (accumulation of Bodipy LacCer probe to the Golgi) (NPC3 cells): correction of their block
CCc1ccc(NC(=O)c2[nH]c(C)c(C(C)=O)c2C)cc1S(=O)(=O)Nc1cccc(C#N)c1 [Example 33] | 2.7 | 140% | 43 | 35 | –
COc1ccc(NC(=O)c2[nH]c(C)c(C(C)=O)c2C)cc1S(=O)(=O)Nc1ccc(Cl)cc1 [Example 58] | – | – | – | 58 | –
COc1ccc(NC(=O)c2[nH]c(C)cc2C)cc1S(=O)(=O)Nc1ccc(Br)cc1 [Example 42] | – | – | 49 | – | EC50 (NPC1 promoter [3]): 2.7 µM; Emax (NPC1 promoter [3]): 119%; activity at 1 µM [2]: 47%
COc1ccc(NC(=O)c2[nH]c(C)c(C(C)=O)c2C)cc1S(=O)(=O)C1CCCCCC1 [Example 53] | – | – | 55 | – | activity at 1 µM [2]: 24%
COc1ccc(NC(=O)c2[nH]c(C)c(C(C)=O)c2C)cc1S(=O)(=O)C1CCc2ccccc2CC1 [Example 59] | – | – | – | – | activity at 1 µM [2]: 40%
COc1ccc(NC(=O)c2[nH]c(C)c(C(C)=O)c2C)cc1S(=O)(=O)Nc1cccc(C#N)c1 [Example 40] | 0.9 | 129% | – | 29 | –
COc1ccc(NC(=O)c2ncc[nH]2)cc1S(=O)(=O)Nc1ccc(Br)cc1 [Example 55] | – | – | – | 30 | –
CC(=O)c1c(C)[nH]c(C(=O)Nc2ccc(OCCCN(C)C)c(S(=O)(=O)Nc3ccc(Br)cc3)c2)c1C [Example 54] | – | – | – | 60 | –
COc1ccc(NC(=O)c2c(C)c(C(C)=O)c(C)n2C)cc1S(=O)(=O)Nc1ccc(Br)cc1 [Example 44] | – | – | – | – | EC50 (NPC1 promoter [3]): 0.5 µM; Emax (NPC1 promoter [3]): 245%
COc1ccc(NC(=O)c2ccc[nH]2)cc1S(=O)(=O)Nc1ccc(Br)cc1 [Example 43] | – | – | – | – | EC50 (NPC1 promoter [3]): 4.3 µM; Emax (NPC1 promoter [3]): 88%
COc1ccc(NC(=O)c2cccnc2)cc1S(=O)(=O)Nc1ccc(Br)cc1 [Example 51] | – | – | – | – | EC50 (NPC1 promoter [3]): 2.7 µM; Emax (NPC1 promoter [3]): 257%; activity at 1 µM [2]: 29%
CN(C)S(=O)(=O)c1cccc(NC(=O)c2ccccc2C(F)(F)F)c1 [Example 16] | 1.2 | 125% | – | – | EC50 (Rab9 promoter): 1.4 µM; Rab9 Eff. (Rab9 promoter): 155%
CC(=O)c1c(C)[nH]c(C(=O)Nc2cccc(S(=O)(=O)N3CCCC3)c2)c1C [Example 3] | 6.1 | 112% | – | – | EC50 (Rab9 promoter): 7.7 µM; Rab9 Eff. (Rab9 promoter): 149%
CC(=O)c1c(C)[nH]c(C(=O)Nc2cccc(S(=O)(=O)Nc3cccc(C#N)c3)c2)c1C [Example 31] | – | – | – | 56 | NPC1 EC50 (NPC1 promoter [1]): Inactive
CC(=O)c1c(C)c(C(=O)Nc2cccc(S(=O)(=O)N(C)C)c2)n(C)c1C [Example 10] | 21.6 | 83% | – | – | Rab9 EC50 (Rab9 promoter): Inactive
CC(=O)c1cccc(C(=O)Nc2cccc(S(=O)(=O)N(C)C)c2)c1 [Example 19] | 8.6 | 40% | – | – | EC50 (Rab9 promoter): 19.4 µM; Rab9 Eff. (Rab9 promoter): 94%

Reference: US10239830B2, “Benzenesulfonamide upregulators of NPC1 for Neimann-Pick disease and other lysosomal storage disorders” (ICAHN SCHOOL OF MEDICINE AT MOUNT SINAI, priority 2015, dated 2019)
